Source: patent US11197857B2, “Combination therapy” (GlaxoSmithKline Intellectual Property Development Limited, priority 2016, dated 2021)

Experiments:
SHI-1 = test: 6-day growth-death assay (Cell Titer Glo); type: cell-based, human; conditions: SHI-1, subtype M5
Method: (§1) The growth of all cell lines was evaluated over time across a wide range of seeding densities to identify conditions that permitted proliferation throughout the entire 6-day assay. Cells were plated at the optimal seeding density and after overnight incubation, a 20-point 2-fold titration of compound was added and plates were incubated for 6 days. A replicate plate of cells was harvested at the time of compound addition to quantify the starting number of cells (T0). Values obtained after the 6 day treatment were expressed as a function of the T0 value and plotted against compound concentration. The T0 value was normalized to 100% and represents the number of cells at the time of compound addition. The data were fit with a 4 parameter equation to generate a concentration response curve and the growth IC50 (gIC50) was determined. The gIC50 is the midpoint of the ‘growth window’, the difference between the number of cells at the time of compound addition (To) and the number of cells after 6 days (DMSO control). The growth-death assay can be used to quantify the net population change, clearly defining cell death (cytotoxicity) as fewer cells compared to the number at the time of compound addition (To).

SW156 = test: 6-day growth-death assay (Cell Titer Glo); type: cell-based, human; conditions: SW156, ccRCC
Method: as §1

MOLM-13 = test: 6-day growth-death assay (Cell Titer Glo); type: cell-based, human; conditions: MOLM-13, subtype M5
Method: as §1

CAKI-2 = test: 6-day growth-death assay (Cell Titer Glo); type: cell-based, human; conditions: CAKI-2, ccRCC
Method: as §1

NOMO-1 = test: 6-day growth-death assay (Cell Titer Glo); type: cell-based, human; conditions: NOMO-1, subtype M5
Method: as §1

HL-60 = test: 6-day growth-death assay (Cell Titer Glo); type: cell-based, human
Method: as §1

TF-1 = test: 6-day growth-death assay (Cell Titer Glo); type: cell-based, human; conditions: TF-1, subtype M6
Method: as §1

A498 = test: 6-day growth-death assay (Cell Titer Glo); type: cell-based, human; conditions: A498, ccRCC
Method: as §1

SKM-1 = test: 6-day growth-death assay (Cell Titer Glo); type: cell-based, human; conditions: SKM-1, subtype M5
Method: as §1

MOLM-16 = test: 6-day growth-death assay (Cell Titer Glo); type: cell-based, human; conditions: MOLM-16, subtype M0
Method: as §1

CAKI-1 = test: 6-day growth-death assay (Cell Titer Glo); type: cell-based, human; conditions: CAKI-1, ccRCC
Method: as §1

OCI-AML3 = test: 6-day growth-death assay (Cell Titer Glo); type: cell-based, human
Method: as §1

MV-4-11 = test: 6-day growth-death assay (Cell Titer Glo); type: cell-based, human; conditions: MV-4-11, subtype M5
Method: as §1

G-401 = test: 6-day growth-death assay (Cell Titer Glo); type: cell-based, human; conditions: G-401, Wilm's
Method: as §1

769-P = test: 6-day growth-death assay (Cell Titer Glo); type: cell-based, human; conditions: ccRCC
Method: as §1

786-O = test: 6-day growth-death assay (Cell Titer Glo); type: cell-based, human; conditions: ccRCC
Method: as §1

KASUMI-1 = test: 6-day growth-death assay (Cell Titer Glo); type: cell-based, human
Method: as §1

ACHN = test: 6-day growth-death assay (Cell Titer Glo); type: cell-based, human
Method: as §1

G-402 = test: 6-day growth-death assay (Cell Titer Glo); type: cell-based, human; conditions: G-402, Leiomyoblastoma
Method: as §1

SK-NEP-1 = test: 6-day growth-death assay (Cell Titer Glo); type: cell-based, human; conditions: SK-NEP-1, Wilm's
Method: as §1

Breast cancer cell lines = test: 6-day growth-death assay (Cell Titer Glo); type: cell-based, human; conditions: 29 cell lines
[1] = test system: ADMA, MMA, SDMA in Toledo cells; test: arginine methylation western analysis (time course and washout); type: cell-based, human; design: time to return of MMA to baseline after washout / time to return of ADMA to baseline after washout / time to return of SDMA to baseline after washout: dose or concentration left out as unconfirmed
From the text: (B) Representative western blots of arginine methylation marks. Regions quantified are denoted by black bars on the right of the gel.
(B) Representative western blots of arginine methylation marks. Regions quantified for (A) are denoted by black bars on the side of the gel.
As predicted, ADMA methylation decreased while MMA increased upon compound exposure (FIG. 12). […] Given the detection of numerous substrates with varying kinetics, and variability of ADMA levels among DMSO-treated samples, both the full lane and a prominent 45 kDa band were characterized to assess ADMA. Increases in MMA were apparent by 24 hours and near maximal by 48 hours while decreases in the 45 kDa ADMA band required 72-96 hours to achieve maximal effect. Increases in SDMA were apparent after 48 hours of compound exposure and continued to increase through 120 hours, consistent with the potential switch from conversion of MMA to ADMA by Type I PRMTs to SDMA by Type II PRMTs (FIG. 12).
Cells were then washed, cultured in Compound A-free media, samples were collected daily through 120 hours, and arginine methylation levels were examined by western analysis. […] SDMA appeared to continue to increase even after 6 hours of washout. This is consistent with the continued increase observed through 120 hours without any obvious plateau (FIG. 12) coupled with the durable increase in MMA that has not yet returned to baseline after washout. Durability of each modification generally reflected the kinetics of arginine methylation changes brought about by Compound A, with MMA being the most rapid.

rat 14-day MTD = conditions: […] mg/kg

SMILES: CCOCC1(COCC)CCC(c2n[nH]cc2CN(C)CCNC)CC1 [Compound A]
- Ymin-T0 (SHI-1): 292.0
- gIC100 (SHI-1): 29.33 ± 0.02 µM
- Ymin-T0 (SW156): 346.7
- Ymin-T0 (MOLM-13): −100.0
- gIC100 (MOLM-13): 8.64 ± 0.39 µM
- Ymin-T0 (CAKI-2): 169.6
- Ymin-T0 (NOMO-1): 259.1
- gIC100 (NOMO-1): 29.33 ± 0.00 µM
- Ymin-T0 (HL-60; HL-60, subtype M3): −33.4
- gIC100 (HL-60; HL-60, subtype M3): 6.38 ± 12.83 µM
- IC50 (HL-60; Homo sapiens, HL-60, read-out: gIC50): 20 ± 10 nM
- Ymin-T0 (TF-1): 788.1
- gIC100 (TF-1): 29.33 ± 0.00 µM
- Ymin-T0 (A498): 313.4
- Ymin-T0 (SKM-1): −19.1
- gIC100 (SKM-1): 11.61 ± 5.52 µM
- Ymin-T0 (MOLM-16): −68.6
- gIC100 (MOLM-16): 9.69 ± 10.58 µM
- Ymin-T0 (CAKI-1): 178.7
- IC50 (OCI-AML3; Homo sapiens, OCI-AML-3, read-out: gIC50): 870 ± 140 nM
- Ymin-T0 (OCI-AML3; OCI-AML3, subtype M4): 523.2
- gIC100 (OCI-AML3; OCI-AML3, subtype M4): 29.33 ± 0.00 µM
- Ymin-T0 (MV-4-11): 565.6
- gIC100 (MV-4-11): 14.55 ± 4.27 µM
- Ymin-T0 (G-401): 353.7
- Ymin-T0 (769-P): 119.0
- Ymin-T0 (786-O): 643.7
- IC50 (KASUMI-1; Homo sapiens, Kasumi 1, read-out: gIC50): 360 ± 250 nM
- Ymin-T0 (KASUMI-1; KASUMI-1, subtype M2): −17.7
- gIC100 (KASUMI-1; KASUMI-1, subtype M2): 18.88 ± 10.55 µM
- IC50 (ACHN; Homo sapiens, read-out: gIC50): 100 ± 50 nM
- Ymin-T0 (ACHN; ccRCC): 96.5
- Ymin-T0 (G-402): 92.6
- Ymin-T0 (SK-NEP-1): 25.3
- % Cytotoxic (cell lines with negative Ymin-T0) (Breast cancer cell lines): 10%
- % gIC100 < 2 μM (share of cell lines) (Breast cancer cell lines): 0%
- Median gIC100 (Breast cancer cell lines): 29.36 µM
- time after which increases in SDMA were apparent ([1]; 0.4 μM): 48 h
- time by which increases in MMA were apparent ([1]; 0.4 μM): ≤ 24 h
- time by which increases in MMA were near maximal ([1]; 0.4 μM): ≤ 48 h
- time required for maximal decrease of 45 kDa ADMA band ([1]; 0.4 μM): 72 to 96 h
- ADMA methylation change ([1]; 0.4 μM, up to 120 hours): decreased
- MMA change ([1]; 0.4 μM, up to 120 hours): increased
- SDMA level change ([1]; 0.4 μM, up to 120 hours): increase
- time to return of ADMA to baseline after washout ([1]; then washout): ≤ 24 h
- time to return of MMA to baseline after washout ([1]; then washout): ≤ 24 h
- time to return of SDMA to baseline after washout ([1]; then washout): ≤ 96 h
- Cave (total AUC or exposure) at MTD (rat 14-day MTD): 2100 nM
